Experimental data reported in patent US6303630A, “Diarylsulfone non-nucleoside reverse transcriptase inhibitors of human immunodeficiency virus” (University of the Sciences in Philadelphia, priority 2000, dated 2001).
Read-outs that look alike come from different tables or passages of the source.

Assays:
[1] = system: T4 lymphocytes (CEM cell line); assay: Cell growth / toxicity control in uninfected T4 lymphocytes (CEM), XTT-formazan; format: cell-based; conditions: for IC50: uninfected CEM cells, 6 days, XTT, approximate values, read-out: IC50 (50% inhibitory concentration for cell growth); for activity at 200 µM / activity at 20 µM / activity at 2 µM / activity at 0.2 µM / activity at 63.2 µM / activity at 6.33 µM / activity at 0.634 µM / activity at 0.0635 µM: read-out: Percent of Control, Uninfected
How it was run: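 Toxicity control: compound, first dissolved in DMSO and serially diluted half-log10 to a final 1:200 dilution, incubated 6 days at 37° and 5% CO2 with CEM cells lacking HIV-1. Viable cells measured spectrophotometrically via XTT-derived formazan and checked microscopically.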

[2] = system: HIV-1; assay: NCI in vitro anti-HIV drug screen: XTT-formazan assay, protection of T4 lymphocytes (CEM) from HIV-1 cytopathic effects; format: cell-based, human immunodeficiency virus (HIV-1); conditions: for EC50 / inhibition at 200 µM / inhibition at 2 µM / inhibition at 0.2 µM / inhibition at 0.634 µM / inhibition at 0.0635 µM / inhibition at 20 µM / inhibition at 63.2 µM / inhibition at 6.33 µM: Human immunodeficiency virus 1, CCRF-CEM; for EC50: 144 h, HIV-1 infected CEM cells, 6 days, XTT, approximate values, read-out: EC50 (50% effective concentration against HIV cytopathic effects); for activity at 200 µM / activity at 20 µM / activity at 2 µM / activity at 0.2 µM / activity at 63.2 µM / activity at 6.33 µM / activity at 0.634 µM / activity at 0.0635 µM: Human immunodeficiency virus 1, Lymphocyte, read-out: Percent of Control, Infected; for TI50 (IC/EC), Therapeutic Index: IC50/EC50
How it was run: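 Protection from HIV-1 cytopathic killing was read spectrophotometrically via XTT formazan from viable cells after 6-day culture (37°, 5% CO2) of infected CEM cells with compound in half-log10 dilutions; drug-treated uninfected cells served as toxicity controls, AZT run alongside.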

[3] = Homo sapiens, CCRF-CEM, dose 2.00 × 10^-4 Molar
[4] = Homo sapiens, CCRF-CEM, dose 2.00 × 10^-5 Molar
[5] = Homo sapiens, CCRF-CEM, dose 2.00 × 10^-6 Molar
[6] = Homo sapiens, CCRF-CEM, dose 2.00 × 10^-7 Molar
[7] = Homo sapiens, CCRF-CEM, dose 6.32 × 10^-5 Molar
[8] = Homo sapiens, CCRF-CEM, dose 6.33 × 10^-6 Molar
[9] = Homo sapiens, CCRF-CEM, dose 6.34 × 10^-7 Molar
[10] = Homo sapiens, CCRF-CEM, dose 6.35 × 10^-8 Molar
[11] = dose 2.00 × 10^-4 Molar, read-out: Percent of Protection
[12] = dose 2.00 × 10^-6 Molar, read-out: Percent of Protection
[13] = dose 2.00 × 10^-7 Molar, read-out: Percent of Protection
[14] = dose 6.34 × 10^-7 Molar, read-out: Percent of Protection
[15] = dose 6.35 × 10^-8 Molar, read-out: Percent of Protection
[16] = dose 2.00 × 10^-4 Molar, listed as Example 21
[17] = dose 2.00 × 10^-5 Molar, listed as Example 21
[18] = dose 6.33 × 10^-6 Molar, read-out: Percent of Protection

`CN(c1ccccc1Cl)S(=O)(=O)c1ccccc1[N+](=O)[O-]` [Compound 38, N-(2-nitrophenylsulfonyl)-2chloro-N-methylaniline] showed an IC50 ([1]; Homo sapiens, CCRF-CEM, 144 h) of 34.1 µM, an activity at 200 µM [1, 3] of 3.62% and an activity at 20 µM [1, 4] of 75.7%. For the same compound, the activity at 2 µM [1, 5] was 98.2%, the activity at 0.2 µM [1, 6] was 99.3% and the activity at 63.2 µM [1, 7] was 20.3%. For the same compound, the activity at 6.33 µM [1, 8] was 94.2%, the activity at 0.634 µM [1, 9] was 98.6% and the activity at 0.0635 µM [1, 10] was 101%. It also gave an EC50 [2] of 4.38 µM, an inhibition at 200 µM [2, 11] of 2.73% and an inhibition at 2 µM [2, 12] of 10.4%. It also gave an inhibition at 0.2 µM [2, 13] of 2.73%, an inhibition at 0.634 µM [2, 14] of -0.31% and an inhibition at 0.0635 µM [2, 15] of -0.27%. The inhibition at 20 µM ([2]; read-out: Percent of Protection, dose 2.00 × 10^-5 Molar) was 61.9%, the inhibition at 63.2 µM ([2]; read-out: Percent of Protection, dose 6.32 × 10^-5 Molar) was -0.27% and the inhibition at 6.33 µM ([2]; read-out: Percent of Protection, dose 6.33 × 10^-6 Molar) was 69%. For the same compound, the activity at 200 µM ([2]; dose 2.00 × 10^-4 Molar) was 28.4%, the activity at 20 µM ([2]; dose 2.00 × 10^-5 Molar) was 63.8% and the activity at 2 µM ([2]; dose 2.00 × 10^-6 Molar) was 14.9%. It also gave an activity at 0.2 µM ([2]; dose 2.00 × 10^-7 Molar) of 7.25%, an activity at 63.2 µM ([2]; dose 6.32 × 10^-5 Molar) of 26.1% and an activity at 6.33 µM ([2]; dose 6.33 × 10^-6 Molar) of 70.6%. For the same compound, the activity at 0.634 µM ([2]; dose 6.34 × 10^-7 Molar) was 4.71%, the activity at 0.0635 µM ([2]; dose 6.35 × 10^-8 Molar) was 4.74% and the “TI50 (IC/EC), Therapeutic Index” value [2] was 7.79 × 10^0.

Compound `CNc1ccccc1S(=O)(=O)c1ccccc1[N+](=O)[O-]` [Compound 66, 2-(2-nitrophenylsulfonyl)-N-methylaniline] has an activity at 2 µM [1, 5] of 101%, an activity at 0.2 µM [1, 6] of 105% and an activity at 63.2 µM [1, 7] of 23.9%. For the same compound, the activity at 0.634 µM [1, 9] was 99.4%, the activity at 0.0635 µM [1, 10] was 98.5% and the “Percent of Control, Uninfected” value [1, 16] was -4.40%. For the same compound, the “Percent of Control, Uninfected” value [1, 17] was 104.09%, the “Percent of Control, Uninfected” value ([1]; dose 6.33 × 10^-6 Molar, listed as Example 21) was 109.40% and the IC50 ([1]; listed as Example 21) was 43.5 µM. The EC50 [2] was 1.02 µM, the inhibition at 2 µM [2, 12] was 93.1% and the inhibition at 6.33 µM [2, 18] was 107%. For the same compound, the activity at 2 µM ([2]; dose 2.00 × 10^-6 Molar) was 93.8%, the activity at 6.33 µM ([2]; dose 6.33 × 10^-6 Molar) was 106% and the “TI50 (IC/EC), Therapeutic Index” value ([2]; listed as Example 21) was 4.24 × 10^+1. For the same compound, the “Percent of Protection” value ([2]; dose 2.00 × 10^-4 Molar, 200 µM, listed as Example 21, 200 µM) was -15.92%, the “Percent of Control, Infected” value [2, 16] was -4.33% and the “Percent of Protection” value ([2]; dose 2.00 × 10^-5 Molar, 20 µM, listed as Example 21, 20 µM) was 98.73%. The “Percent of Control, Infected” value [2, 17] was 98.86%, the “Percent of Protection” value ([2]; dose 2.00 × 10^-7 Molar, 0.2 µM, listed as Example 21, 0.2 µM) was 4.77% and the “Percent of Control, Infected” value ([2]; dose 2.00 × 10^-7 Molar, listed as Example 21) was 14.29%. The “Percent of Protection” value ([2]; dose 6.32 × 10^-5 Molar, 63.2 µM, listed as Example 21, 63.2 µM) was 24.17%, the “Percent of Control, Infected” value ([2]; dose 6.32 × 10^-5 Molar, listed as Example 21) was 31.75% and the “Percent of Protection” value ([2]; dose 6.34 × 10^-7 Molar, 0.634 µM, listed as Example 21, 0.634 µM) was 19.34%. The “Percent of Control, Infected” value ([2]; dose 6.34 × 10^-7 Molar, listed as Example 21) was 27.41%, the “Percent of Protection” value ([2]; dose 6.35 × 10^-8 Molar, 0.0635 µM, listed as Example 21, 0.0635 µM) was 2.40% and the “Percent of Control, Infected” value ([2]; dose 6.35 × 10^-8 Molar, listed as Example 21) was 12.16%.

`CNc1ccc(Cl)cc1S(=O)(=O)c1ccccc1[N+](=O)[O-]` [Compound 72, 2-(2-nitrophenylsulfonyl)4-chloro-N-methylaniline] showed an IC50 ([1]; Homo sapiens, CCRF-CEM, 144 h) of over 200 µM, an activity at 200 µM [1, 3] of 84% and an activity at 20 µM [1, 4] of 93.6%. For the same compound, the activity at 2 µM [1, 5] was 95.8%, the activity at 0.2 µM [1, 6] was 102% and the activity at 63.2 µM [1, 7] was 97%. It also gave an activity at 6.33 µM [1, 8] of 101%, an activity at 0.634 µM [1, 9] of 101% and an activity at 0.0635 µM [1, 10] of 99%. For the same compound, the EC50 [2] was 0.075 µM, the inhibition at 200 µM [2, 11] was 74% and the inhibition at 20 µM ([2]; dose 2.00 × 10^-5 Molar, read-out: Percent of Protection) was 84%. For the same compound, the inhibition at 2 µM [2, 12] was 93.4%, the inhibition at 0.2 µM [2, 13] was 76% and the inhibition at 63.2 µM ([2]; dose 6.32 × 10^-5 Molar, read-out: Percent of Protection) was 85.5%. For the same compound, the inhibition at 6.33 µM [2, 18] was 93.3%, the inhibition at 0.634 µM [2, 14] was 102% and the inhibition at 0.0635 µM [2, 15] was 46.1%. For the same compound, the activity at 200 µM ([2]; dose 2.00 × 10^-4 Molar) was 74.5%, the activity at 20 µM ([2]; dose 2.00 × 10^-5 Molar) was 84.3% and the activity at 2 µM ([2]; dose 2.00 × 10^-6 Molar) was 93.6%. The activity at 0.2 µM ([2]; dose 2.00 × 10^-7 Molar) was 76.5%, the activity at 63.2 µM ([2]; dose 6.32 × 10^-5 Molar) was 85.8% and the activity at 6.33 µM ([2]; dose 6.33 × 10^-6 Molar) was 93.4%. For the same compound, the activity at 0.634 µM ([2]; dose 6.34 × 10^-7 Molar) was 102%, the activity at 0.0635 µM ([2]; dose 6.35 × 10^-8 Molar) was 47.1% and the “TI50 (IC/EC), Therapeutic Index” value [2] was > 2.67 × 10^+3.

With `CNc1ccccc1S(=O)(=O)c1ccccc1[N+](=O)[O-]` [Example 22, 2-(2-nitrophenylsulfonyl)-N-methylaniline] the “Percent of Control, Uninfected” value ([1]; dose 2.00 × 10^-4 Molar) was 1.98%, the “Percent of Control, Uninfected” value ([1]; dose 2.00 × 10^-5 Molar) was 36.62% and the “Percent of Control, Uninfected” value ([1]; dose 2.00 × 10^-6 Molar) was 88.74%. For the same compound, the “Percent of Control, Uninfected” value ([1]; dose 2.00 × 10^-7 Molar) was 92.07%, the “Percent of Control, Uninfected” value ([1]; dose 6.32 × 10^-5 Molar) was 15.40% and the “Percent of Control, Uninfected” value ([1]; dose 6.33 × 10^-6 Molar) was 87.28%. For the same compound, the “Percent of Control, Uninfected” value ([1]; dose 6.34 × 10^-7 Molar) was 97.06%, the “Percent of Control, Uninfected” value ([1]; dose 6.35 × 10^-8 Molar) was 96.33% and the IC50 [1] was 14.8 µM. The “TI50 (IC/EC), Therapeutic Index” value [2] was 1.80 × 10^+2, the “Percent of Control, Infected” value ([2]; dose 2.00 × 10^-4 Molar) was 6.35% and the “Percent of Protection” value ([2]; dose 2.00 × 10^-4 Molar, 200 µM) was 1.42%. For the same compound, the “Percent of Control, Infected” value ([2]; dose 2.00 × 10^-5 Molar) was 43.49%, the “Percent of Protection” value ([2]; dose 2.00 × 10^-5 Molar, 20 µM) was 40.52% and the “Percent of Control, Infected” value ([2]; dose 2.00 × 10^-6 Molar) was 107.31%. The “Percent of Protection” value ([2]; dose 2.00 × 10^-6 Molar, 2 µM) was 107.69%, the “Percent of Control, Infected” value ([2]; dose 2.00 × 10^-7 Molar) was 99.97% and the “Percent of Protection” value ([2]; dose 2.00 × 10^-7 Molar, 0.2 µM) was 99.97%. For the same compound, the “Percent of Control, Infected” value ([2]; dose 6.32 × 10^-5 Molar) was 5.67%, the “Percent of Protection” value ([2]; dose 6.32 × 10^-5 Molar, 63.2 µM) was 0.71% and the “Percent of Control, Infected” value ([2]; dose 6.33 × 10^-6 Molar) was 100.65%. For the same compound, the “Percent of Protection” value ([2]; dose 6.33 × 10^-6 Molar, 6.33 µM) was 100.68%, the “Percent of Control, Infected” value ([2]; dose 6.34 × 10^-7 Molar) was 110.38% and the “Percent of Protection” value ([2]; dose 6.34 × 10^-7 Molar, 0.634 µM) was 110.93%. The “Percent of Control, Infected” value ([2]; dose 6.35 × 10^-8 Molar) was 88.79% and the “Percent of Protection” value ([2]; dose 6.35 × 10^-8 Molar, 0.0635 µM) was 88.20%.
